Structures can show the parent of a compound that is named as a salt.

This is an account of results in patent publication US20080171737A1 (Wyeth, priority 2006, published 2008).

The target in the first test is T1, human hNET (Homo sapiens, UniProt P23975).
T1 construct: expressed in transfected cells; host or cells: MDCK-Net6 (MDCK cells stably transfected with hNET)
T1 sequence (P23975 whole entry): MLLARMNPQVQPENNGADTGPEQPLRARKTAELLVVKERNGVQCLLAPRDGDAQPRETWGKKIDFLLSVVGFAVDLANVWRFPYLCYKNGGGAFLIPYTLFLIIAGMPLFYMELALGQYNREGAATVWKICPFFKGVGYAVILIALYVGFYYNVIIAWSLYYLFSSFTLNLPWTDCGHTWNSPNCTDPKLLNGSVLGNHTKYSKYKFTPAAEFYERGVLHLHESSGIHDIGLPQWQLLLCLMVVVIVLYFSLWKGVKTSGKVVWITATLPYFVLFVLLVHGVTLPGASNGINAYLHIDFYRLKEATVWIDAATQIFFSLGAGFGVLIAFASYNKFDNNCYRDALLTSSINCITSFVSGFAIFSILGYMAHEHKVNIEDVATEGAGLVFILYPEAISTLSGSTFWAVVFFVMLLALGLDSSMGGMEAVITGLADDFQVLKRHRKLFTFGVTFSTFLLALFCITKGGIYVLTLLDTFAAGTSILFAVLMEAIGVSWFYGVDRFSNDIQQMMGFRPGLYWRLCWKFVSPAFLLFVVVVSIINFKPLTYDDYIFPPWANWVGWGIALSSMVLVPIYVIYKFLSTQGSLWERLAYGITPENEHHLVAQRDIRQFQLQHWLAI
Briefly: Functional norepinephrine reuptake assay, Procedure B (6,000 cells/well). The format is cell-based.
Conditions: not given
How it is done:
For screening, 25 μl aliquots of compound solution at a 1 μM or 10 μM final concentration was delivered directly to cells.
For IC50 determinations, stock compounds were prepared at 10 mM from powder. The stock solution was diluted according to compound testing range. […] On the day of assay, 25 μl of compound solution at the specified concentrations were added to the plates containing cells. A DMSO stock of desipramine was prepared at 10 mM in DMSO and diluted for a final concentration of 20 μM to determine the non-specific reuptake.
MDCK-Net6 cells, stably transfected with human hNET (Pacholczyk, 1991), were maintained in growth media [high glucose DMEM (Gibco Cat. 11995), 10% FBS (dialyzed, heat-inactivated, Sigma, dialysed, heat inactivated, Lot# K0922 or equivalent) 1xPen/Strep, and 500 μg/ml G418 (Gibco Cat. 10131)]. Cells were plated at 300,000/T75 flask and cells split twice weekly.
Cells were plated at 50,000 cells/well (Procedure A) or 6,000 cells/well (Procedure B) on day 1 in BD Falcon Microtest 96-well sterile cell culture plates, Optilux White/Clear Bottom TC plate (VWR; # 62406-466 or equivalent) in growth media and maintained in a cell incubator (37° C., 5% CO2). On Day 2, cells were removed from the cell incubator and the growth media is replaced by 200 μl of assay buffer (25 mm HEPES 120 mM NaCL; 5 mM KCl; 2.5 mM CaCl2; 1.2 mM MgSO4; 2 mg/ml glucose (pH 7.4, 37° C.)) containing 0.2 mg/ml ascorbic acid and 1 μM parglyine. For screening, 25 μl of compound in 4% DMSO was added directly to each well and the plate was incubated for 5 minutes (37° C.). […] The reaction is aspirated from the plate and the cells washed with 250 μl of 50 mM Tris Buffer (4° C.). The plates were left to dry for 1 hour. The cells were lysed using 0.25 M NaOH solution then placed on a shake table and vigorously shaken for 10 minutes. After cell lysis, 100 μl of Microscint 20 (PerkinElmer; #87-051101) was added to the plates and the plates were sealed with film tape and replaced on the shake table for a minimum of 10 minutes. The plates were counted in a TopCount counter (PerkinElmer).
% inhibition=[1−((mean cpm test compound wells−mean cpm non-specific wells)/(mean cpm control wells−mean cpm non-specific wells))]×100
For IC50 determination, raw cpm values were generated in a data file from the TopCount counter. The data was organized using the Microsoft Excel and transferred into PRIZM graphing and statistical program, which calculated the estimated IC50 value. Calculation of IC50 values was made using non-linear regression analysis with a sigmoidal dose response with variable slope. The statistical program used wells containing ^3H norepinephrine only as the maximal NE reuptake determinant and wells containing ^3H norepinephrine plus 20 μM desipramine (AHR-9543) as the minimal NE reuptake determinant (non-specific determinant). Estimation of the IC50 value was completed on a log scale and the line was fit between the maximal and minimal NE reuptake values.
`CNCCC[C@H]1Cc2ccccc2N(c2c(F)cccc2F)S1(=O)=O` (single isomer, unassigned) [Example 121] yielded an IC50 of 52 nM.

Still in this test, the particulars now being: MDCK-Net6 cells, 6,000 cells/well, 16 nM 3H-norepinephrine; read-out: Procedure B hNET uptake IC50.
With `CNCCCC1Cc2cc(F)ccc2N(c2ccccc2C#N)S1(=O)=O` (racemic) [Example 163, 2-{6-fluoro-3-[3-(methylamino)propyl]-2,2-dioxido-3,4-dihydro-1H-2,1-benzothiazin-1-yl}benzonitrile], the concentration for half-maximal inhibition (IC50) was 189 nM.

Regarding `O=S1(=O)C(CN2CCNCC2)Oc2ccccc2N1c1ccccc1` (stereo not shown) [Example 135, 1-phenyl-3-(piperazin-1-ylmethyl)-1H-4,2,1-benzoxathiazine 2,2-dioxide], the IC50 worked out at 165 nM. Turning to `CNCC[C@@H](O)[C@H]1Cc2ccccc2N(c2ccccc2)S1(=O)=O` (single isomer, unassigned) [Example 116], the IC50 came to 85 nM. For `CNCCCC1Cc2cc(F)ccc2N(c2c(F)cccc2F)S1(=O)=O` (racemic) [Example 154, 3-[1-(2,6-difluorophenyl)-6-fluoro-2,2-dioxido-3,4-dihydro-1H-2,1-benzothiazin-3-yl]-N-methylpropan-1-amine], the IC50 was 31 nM. For the molecule `CNCCC[C@H]1Oc2cc3ccccc3cc2N(c2ccccc2)S1(=O)=O` (single isomer, unassigned) [Example 71, Hydrochloride], the IC50 is 69.4 nM.

For the molecule `CNCCCC1Oc2cccc(F)c2N(c2ccccc2)S1(=O)=O` (stereo not shown) [Example 48, 3-(8-fluoro-2,2-dioxido-1-phenyl-1H-4,2,1-benzoxathiazin-3-yl)-N-methylpropan-1-amine], the IC50 came to 636 nM. As to `O=S1(=O)C(CN2CC3CC2CN3)Oc2ccccc2N1c1ccccc1` (stereo not shown) [Example 143, 3-(2,5-diazabicyclo[2.2.1]hept-2-ylmethyl)-1-phenyl-1H-4,2,1-benzoxathiazine 2,2-dioxide], the IC50 came to 231 nM. On the same count and under the same terms, in the case of `CCCCNCCC1Oc2ccccc2N(c2ccccc2)S1(=O)=O` (stereo not shown) [Example 31, N-[2-(2,2-dioxido-1-phenyl-1H-4,2,1-benzoxathiazin-3-yl)ethyl]butan-1-amine] it was 1660 nM. Consider `CNCCC[C@@H]1Cc2cc(F)ccc2N(c2ccccc2OC)S1(=O)=O` (single isomer, unassigned) [Example 168], for which the half-inhibitory concentration (IC50) was determined as 341 nM. With `CNCCC[C@H]1Cc2cc(F)ccc2N(c2cccc(F)c2F)S1(=O)=O` (single isomer, unassigned) [Example 146], the IC50 came to 66 nM. `NCC[C@H]1Oc2ccccc2N(c2ccccc2)S1(=O)=O` (single isomer, unassigned) [Example 102]: the IC50 came to 1270 nM. As for `CNCCCC1Oc2cc3ccccc3cc2N(c2cccc(F)c2)S1(=O)=O` (stereo not shown) [Example 70, 3-[1-(3-fluorophenyl)-2,2-dioxido-1H-naphtho[2,3-e][1,3,4]oxathiazin-3-yl]-N-methylpropan-1-amine Hydrochloride], the IC50 was determined as 119 nM.

Consider `NCC[C@@H]1Oc2ccccc2N(c2ccccc2)S1(=O)=O` (single isomer, unassigned) [Example 103], for which the IC50 was 3320 nM.

`CNCCCC1Cc2cc(F)ccc2N(c2ccc(F)cc2C)S1(=O)=O` (racemic) [Example 169, 3-[6-fluoro-1-(4-fluoro-2-methylphenyl)-2,2-dioxido-3,4-dihydro-1H-2,1-benzothiazin-3-yl]-N-methylpropan-1-amine]: the IC50 was determined as 96 nM. Turning to `CNC[C@@H](O)C[C@H]1Oc2ccccc2N(c2ccccc2)S1(=O)=O` (single isomer, unassigned) [Example 98], the IC50 was determined as 77 nM.

As for `CNCC[C@@H]1Oc2ccccc2N(c2ccccc2)S1(=O)=O` (single isomer, unassigned) [Example 105], the IC50 is 1220 nM. Same read-out and setting: in the case of `CNCCCC1Oc2cc3ccccc3cc2N(c2ccc(C)cc2)S1(=O)=O` (stereo not shown) [Example 69, N-methyl-3-[1-(4-methylphenyl)-2,2-dioxido-1H-naphtho[2,3-e][1,3,4]oxathiazin-3-yl]propan-1-amine Hydrochloride] it was 733 nM. On to `CN(C)CCC1Oc2ccccc2N(c2ccccc2)S1(=O)=O` (stereo not shown) [Example 26, 2-(2,2-dioxido-1-phenyl-1H-4,2,1-benzoxathiazin-3-yl)-N,N-dimethylethanamine], for which the IC50 turned out to be 97.1 nM. `CNCCCC1Oc2ccc(C)cc2N(c2ccccc2)S1(=O)=O` (stereo not shown) [Example 50, N-methyl-3-(7-methyl-2,2-dioxido-1-phenyl-1H-4,2,1-benzoxathiazin-3-yl)propan-1-amine]: the IC50 was found to be 114 nM. Consider `O=S1(=O)C(CCCN2CCNCC2)Oc2ccccc2N1c1ccccc1` (stereo not shown) [Example 76, 1-phenyl-3-(3-piperazin-1-ylpropyl)-1H-4,2,1-benzoxathiazine2,2-dioxide Dihydrochloride], for which the 50% inhibitory concentration (IC50) came to 5050 nM. In the case of `CNCCC[C@@H]1Oc2cc(F)ccc2N(c2ccccc2F)S1(=O)=O` (single isomer, unassigned) [Example 130, Hydrochloride], the concentration for half-maximal inhibition (IC50) came out at 45 nM. With `CN(C)CCNCC1Oc2ccccc2N(c2ccccc2)S1(=O)=O` (stereo not shown) [Example 138, N′-[(2,2-dioxido-1-phenyl-1H-4,2,1-benzoxathiazin-3-yl)methyl]-N,N-dimethylethane-1,2-diamine], the IC50 was found to be 3750 nM.

As to `CN(C)CCN(C)CC1Oc2ccccc2N(c2ccccc2)S1(=O)=O` (stereo not shown) [Example 140, N-[(2,2-dioxido-1-phenyl-1H-4,2,1-benzoxathiazin-3-yl)methyl]-N,N′,N′-trimethylethane-1,2-diamine], the IC50 turned out to be 4320 nM. `CNCCC[C@@H]1Cc2cc(F)ccc2N(c2ccccc2Cl)S1(=O)=O` (single isomer, unassigned) [Example 159]: the half-inhibitory concentration (IC50) turned out to be 133 nM. With `CNCCC[C@@H]1Oc2cc(F)ccc2N(c2ccccc2)S1(=O)=O` (single isomer, unassigned) [Example 107], the IC50 came to 74 nM. For `CNCCCC1Sc2ccccc2N(c2ccc(C)cc2)S1(=O)=O` (stereo not shown) [Example 63, N-methyl-3-[1-(4-methylphenyl)-2,2-dioxido-1H-2,4,1-benzodithiazin-3-yl]propan-1-amine Hydrochloride], the IC50 came out at 156 nM.

On to `CNCCCC1Oc2cc3ccccc3cc2N(c2ccccc2)S1(=O)=O` (stereo not shown) [Example 55, 3-(2,2-dioxido-1-phenyl-1H-naphtho[2,3-e][1,3,4]oxathiazin-3-yl)-N-methylpropan-1-amine hydrochloride], for which the IC50 is 47.8 nM.

The same test, now with this note: MDCK-Net6 cells, 6,000 cells/well; Conc 6000 nM (6 μM); hydrochloride.
Take `CN1CCN(CCC2Oc3ccccc3N(c3ccccc3)S2(=O)=O)CC1` (stereo not shown) [Example 87, 3-[2-(4-Methyl-piperazin-1-yl)-ethyl]-1-phenyl-1H-benzo[1,3,4]oxathiazine 2,2-dioxide hydrochloride]: the “Procedure B hNET uptake (% inhibition)” value came out at 35%.

The test is the same for the next values; noted with them: MDCK-Net6 cells, 6,000 cells/well; Conc 6000 nM (6 μM); read-out: Procedure B hNET uptake (% inhibition).
Regarding `CC(C)CNCCCC1Oc2ccccc2N(c2ccccc2)S1(=O)=O` (stereo not shown) [Example 38, N-[3-(2,2-dioxido-1-phenyl-1H-4,2,1-benzoxathiazin-3-yl)propyl]-2-methylpropan-1-amine], the inhibition at 6 µM was found to be 63%.

Consider `CN1CCN(CCC2Oc3ccccc3N(c3ccccc3)S2(=O)=O)CC1` (stereo not shown) [Example 30, 3-[2-(4-methylpiperazin-1-yl)ethyl]-1-phenyl-1H-4,2,1-benzoxathiazine 2,2-dioxide], for which the inhibition at 6 µM turned out to be 35%.

In the case of `CCN(CC)CCCC1Oc2ccccc2N(c2ccccc2)S1(=O)=O` (stereo not shown) [Example 82, 3-(2,2-dioxido-1-phenyl-1H-4,2,1-benzoxathiazin-3-yl)-N,N-diethylpropan-1-amine hydrochloride], the inhibition at 6 µM is 47%. Take `CC(C)N(C)CCCC1Oc2ccccc2N(c2ccccc2)S1(=O)=O` (stereo not shown) [Example 84, 3-(2,2-dioxido-1-phenyl-1H-4,2,1-benzoxathiazin-3-yl)-N-isopropyl-N-methylpropan-1-amine Hydrochloride]: the inhibition at 6 µM was determined as 27%.

`CCN(CCO)CCCC1Oc2ccccc2N(c2ccccc2)S1(=O)=O` (stereo not shown) [Example 83, 2-{[3-(2,2-dioxido-1-phenyl-1H-4,2,1-benzoxathiazin-3-yl)propyl](ethyl)amino}ethanol hydrochloride]: the inhibition at 6 µM is 41%.

In general, IC50 refers to the point on the concentration scale where inhibition reaches its midpoint. Broadly, the inhibition is how much of the control response was suppressed.
